According to ChEMBL document CHEMBL3046396, “Synthesis and insecticidal evaluation of N-tert-butyl-N'-thio[1-(6-chloro-3-pyridylmethyl)-2-nitroiminoimidazolidine]-N,N'-diacylhydrazines” (2010):
Calls of active or inactive are those of the source. The rule behind the calls is not given here.

Key:
[1] = tested on: Aphis fabae; assay: Insecticidal activity against apterous adult stage of Aphis fabae ( black bean aphids) in soybean tender shoots assessed as death rate at 200 mg/l treated for 5 secs measured after 48 hr by modified FAO dip test; format: functional
[2] = tested on: Aphis fabae; assay: Insecticidal activity against apterous adult stage of Aphis fabae (black bean aphids) in soybean tender shoots assessed as induction of premature, abnormal and lethal larva moult at 10 mg/l treated for 5 secs measured after 3 days by modified FAO dip test; format: functional, organism-based
[3] = tested on: Mythimna separata; assay: Larvicidal activity against fourth-instar larval stage of Mythimna separata (Oriental armyworm) in compound-pretreated corn leaves assessed as mortality at 10 mg/l after 4 days; format: functional
[4] = tested on: Mythimna separata; assay: Larvicidal activity against fourth-instar larval stage of Mythimna separata (Oriental armyworm) in compound-pretreated corn leaves assessed as mortality at 5 mg/l after 4 days; format: functional
[5] = tested on: Mythimna separata; assay: Larvicidal activity against fourth-instar larval stage of Mythimna separata (Oriental armyworm) in compound-pretreated corn leaves assessed as mortality at 25 mg/l after 4 days; format: functional
[6] = tested on: Mythimna separata; assay: Larvicidal activity against fourth-instar larval stage of Mythimna separata (Oriental armyworm) in compound-pretreated corn leaves assessed as mortality at 50 mg/l after 4 days; format: functional
[7] = tested on: Aphis fabae; assay: Insecticidal activity against apterous adult stage of Aphis fabae (black bean aphids) in soybean tender shoots assessed as mortality at 200 mg/l treated for 5 secs measured after 2 hr by modified FAO dip test; format: functional, organism-based
[8] = tested on: Mythimna separata; assay: Larvicidal activity against fourth-instar larval stage of Mythimna separata (Oriental armyworm) in compound-pretreated corn leaves assessed as mortality at 200 mg/l after 4 days; format: functional
[9] = tested on: Mythimna separata; assay: Larvicidal activity against fourth-instar larval stage of Mythimna separata (Oriental armyworm) in compound-pretreated corn leaves assessed as mortality at 500 mg/l after 4 days; format: functional
[10] = tested on: Mythimna separata; assay: Larvicidal activity against fourth-instar larval stage of Mythimna separata (Oriental armyworm) in compound-pretreated corn leaves assessed as mortality at 100 mg/l after 4 days; format: functional

Structure (SMILES)	Activity [1] [%]	Activity [2]	mortality at 10 µg/mL [3] [%]	mortality at 5 µg/mL [4] [%]	mortality at 25 µg/mL [5] [%]	mortality at 50 µg/mL [6] [%]	Activity [7]	mortality at 200 µg/mL [8] [%]	mortality at 500 µg/mL [9] [%]	mortality at 100 µg/mL [10] [%]
CC(C)(C)N(NC(=O)c1ccccc1)C(=O)c1ccccc1Cl	18	Active	75	0	90	100				
CCc1ccc(C(=O)N(SN2CCN(Cc3ccc(Cl)nc3)/C2=N/[N+](=O)[O-])N(C(=O)c2cc(C)cc(C)c2)C(C)(C)C)cc1	53	Active	90	70	100	100	Active			
Cc1cc(C)cc(C(=O)N(NC(=O)c2ccccc2)C(C)(C)C)c1	12	Active	10		60	100				
CC(C)(C)N(C(=O)c1ccccc1)N(SN1CCN(Cc2ccc(Cl)nc2)/C1=N/[N+](=O)[O-])C(=O)c1ccccc1	100	Active					Active	80	100	0
COc1ccc(C(=O)N(SN2CCN(Cc3ccc(Cl)nc3)/C2=N/[N+](=O)[O-])N(C(=O)c2ccc(OC)cc2)C(C)(C)C)cc1	87	Active				0	Active	70	100	40
COc1ccccc1C(=O)N(N(SN1CCN(Cc2ccc(Cl)nc2)/C1=N/[N+](=O)[O-])C(=O)c1ccccc1)C(C)(C)C	92	Active				0	Active	40	90	20
COc1ccccc1C(=O)N(NC(=O)c1ccccc1)C(C)(C)C	32	Active	10	0	90	100				
CCc1ccc(C(=O)NN(C(=O)c2cc(C)cc(C)c2)C(C)(C)C)cc1 [TEBUFENOZIDE]	0	Active	100	70						
CC(C)(C)N(C(=O)c1cccc(Cl)c1)N(SN1CCN(Cc2ccc(Cl)nc2)/C1=N/[N+](=O)[O-])C(=O)c1ccccc1	86	Active			0	25	Active	80	100	70
CC(C)(C)N(NC(=O)c1ccccc1)C(=O)c1cccc(Cl)c1	12	Active	0		45	95				100
CC(C)(C)N(NC(=O)c1ccccc1)C(=O)c1ccccc1 [RH-5849]	0	Active	0		70	100				
COc1ccccc1C(=O)N(SN1CCN(Cc2ccc(Cl)nc2)/C1=N/[N+](=O)[O-])N(C(=O)c1ccccc1OC)C(C)(C)C	91	Active			0	10	Active	70	80	40
COc1ccc(C(=O)N(NC(=O)c2ccccc2)C(C)(C)C)cc1	0	Active						0	60	
Cc1cc(C)cc(C(=O)N(N(SN2CCN(Cc3ccc(Cl)nc3)/C2=N/[N+](=O)[O-])C(=O)c2ccccc2)C(C)(C)C)c1	80	Active			0	10	Active	85	95	55
Cc1cc(C)cc(C(=O)NN(C(=O)c2cc(C)cc(C)c2)C(C)(C)C)c1	10	Active	10		70	95				
Cc1cc(C)cc(C(=O)N(SN2CCN(Cc3ccc(Cl)nc3)/C2=N/[N+](=O)[O-])N(C(=O)c2cc(C)cc(C)c2)C(C)(C)C)c1	89	Active	0		10	25	Active	70	100	50
CC(C)(C)N(C(=O)c1ccc(Cl)cc1)N(SN1CCN(Cc2ccc(Cl)nc2)/C1=N/[N+](=O)[O-])C(=O)c1ccccc1	87	Active			0	40	Active	80	100	70
CC(C)(C)N(C(=O)c1ccccc1Cl)N(SN1CCN(Cc2ccc(Cl)nc2)/C1=N/[N+](=O)[O-])C(=O)c1ccccc1	84	Active	0		10	30	Active	60	100	50
COc1ccccc1C(=O)NN(C(=O)c1ccccc1OC)C(C)(C)C	0	Active						70	10	
COc1ccc(C(=O)N(N(SN2CCN(Cc3ccc(Cl)nc3)/C2=N/[N+](=O)[O-])C(=O)c2ccccc2)C(C)(C)C)cc1	95	Active				0	Active	70	80	20
CC(C)(C)N(NC(=O)c1ccccc1)C(=O)c1ccc(Cl)cc1	26	Active	25	0	100	100				
COc1ccc(C(=O)NN(C(=O)c2ccc(OC)cc2)C(C)(C)C)cc1	22	Active				0		40	95	10
O=[N+]([O-])/N=C1\NCCN1Cc1ccc(Cl)nc1 [IMIDACLOPRID]	100		10		20	30	Active	100		60
